Data set [1] has as its system Carrageenan-induced thermal hyperalgesia. The experiment in a line: Carrageenan-induced thermal hyperalgesia (Hargreaves). The class given is in vivo, rat. The note with it: indomethacin 30 mg/kg p.o. prior to carrageenan; for Paw withdrawal latency: cut-off 40 s, individual animals. The protocol: (§1) The effect of Compound 2 in the rat carrageenan model of acute inflammatory pain was evaluated. The intraplantar carrageenan model of acute inflammatory pain in the rat results in behaviors similar to that observed in patients and has been widely used to assess novel pharmacological treatments (Whiteside et al., 2005, J. Pharmacol. Exp. Ther. 314:1234-1240). The objective of this study was to evaluate the ability of Compound 2 to reverse or prevent development of thermal hyperalgesia and edema in the rat carrageenan model of acute inflammatory pain. The positive control was indomethacin (Sigma, St. Louis), and the negative control was vehicle (0.5% methyl cellulose). […] The Hargreaves apparatus was obtained from Ugo Basile, Italy, and the lamba-carrageenan was obtained from Sigma, St. Louis. For this assay, paw withdrawal latency to a thermal stimulus was assessed using a radiant heat source (Ugo Basile, Italy) aimed at the plantar surface of the left hind paw (Hargreaves test). […] Paw volume was measured by displacement of water and assuming a tissue density equal to that of water. Baseline latencies were taken prior to carrageenan administration and re-assessed 4 h later. Compound 2 or vehicle was administered (10 and 30 mg/kg, p.o.) 3 hrs after carrageenan (curative) and behavior assessed 1 hr later. […] Indomethacin (positive control, 30 mg/kg p.o.) was administered prior to carrageenan and behavior assessed 4 hrs post-carrageenan. […] After induction of anesthesia, the injection site was prepared in a sterile manner and 50 μl of a 2% Jamba-carrageenan was injected. After injection, animals were weighed and allowed to recover before being returned to their home cages. Statistical significance was determined on untransformed data using a two-way analysis of variance (Graphpad Prism, NC). Significant main effects were analyzed further by subsequent Bonferronni post-hoc test. The level of significance was set at p<0.05. Data are shown as mean±S.E.M. (with an asterisk to denote significance as compared to vehicle treated controls).
In general terms: In the carrageenan paw model, swelling and tenderness develop within hours.

Data set [2] has as its system Carrageenan-induced edema. The experiment in a line: Carrageenan-induced edema (paw volume). It counts as in vivo, rat. The note with it: indomethacin 30 mg/kg p.o. prior to carrageenan; for Paw volume: individual animals. The protocol:
as §1, with “later.” for “later. Compound 2 or vehicle was administered (10 and 30 mg/kg, p.o.) 3 hrs after carrageenan (curative) and behavior assessed 1 hr later.”

Several values for one entry are separate records, joined by “and”; a condition that tells them apart may be missing. Equal values may be shown once. Where a name gives a salt, the structure may show the parent alone.

A word on the melting point: it is the temperature, or range, at which the solid turns liquid. Turning to `O=C(O)[C@@H]1CSC(Nc2ccc(F)cc2O)=N1` (as salt: HCl) [Compound 6, (R)-2-(4-Fluoro-2-hydroxyphenylamino)-thiazoline-4-carboxylic acid], the melting point is 109 to 111 °C.

For the compound `Cc1c(Cl)cc(NC2=N[C@H](C(=O)O)CS2)c(O)c1Cl` (as salt: HCl) [Compound 8, (R)-2-(3,5-Dichloro-2-hydroxy-4-methylphenylamino)-thiazoline-4-carboxylic acid], the melting point was 205 to 207 °C. Compound `COC(=O)c1ccc(NC2=N[C@H](C(=O)O)CS2)c(O)c1` (as salt: HCl) [Compound 12, (R)-2-(2-Hydroxy-4-methoxycarbonylphenylamino)-thiazoline-4-carboxylic acid] displayed a melting point of 118 to 120 °C. For the compound `COc1ccc2c(c1)c(CC(=O)O)c(C)n2C(=O)c1ccc(Cl)cc1` [Indo], the “Paw withdrawal latency” value in data set [1] (4 hrs post-carrageenan (second line)) is 17 s and 35 s and 26 s and 28 s and 40 s (2×); in data set [1] (baseline prior to carrageenan (first line)), 20 s and 40 s and 17 s and 32 s and 23 s and 24 s. Further, the “Paw volume” value in data set [2] (4 hr post-drug) is 2.5 mL and 2.4 mL and 2.3 mL (2×) and 2.2 mL and 1.8 mL; in data set [2] (Pre-Cg), 1.7 mL (2×) and 1.5 mL (2×) and 1.8 mL and 1.4 mL. For `COc1ccc2c(c1)c(CC(=O)O)c(C)n2C(=O)c1ccc(Cl)cc1` [indomethacin, reference compound], in data set [1] (rat, 4 hrs post-carrageenan), the “carrageenan-induced thermal hyperalgesia, positive control preemptive” value is on record as “statistically significant prevention”. Besides, in data set [2] (rat, 4 hrs post-carrageenan), the “carrageenan-induced edema, positive control preemptive” value is reported as “statistically significant prevention”.

These data come from patent publication US9102636B2, “Analgesic compounds, compositions, and uses thereof” (Galleon Pharmaceuticals, Inc., priority 2010, dated 2015).
